Measured values as given in the NIST ThermoML archive (doi:10.1016/j.fluid.2017.09.005).

Test: xn = mol fraction of the nth substance listed
Settings: Liquid; for mass density: Vibrating tube method

CCO [ethanol] + O
viscosity [mPa·s], Capillary tube (Ostwald / Ubbelohde) method
Settings | x1 = 0.1 | x1 = 0.2 | x1 = 0.3 | x1 = 0.4 | x1 = 0.6 | x1 = 0.8 | x1 = 1
523.2 K, 20000 kPa | 0.12 | 0.119 | 0.114 | 0.109 | 0.099 | 0.092 | 0.087
523.2 K, 30000 kPa | 0.126 | 0.127 | 0.125 | 0.119 | 0.113 | 0.107 | 0.103
523.2 K, 40000 kPa | 0.132 | 0.132 | 0.134 | 0.128 | 0.124 | 0.119 | 0.115
573.2 K, 20000 kPa | 0.085 | 0.078 | 0.07 | 0.065 | 0.057 | 0.054 | 0.053
573.2 K, 30000 kPa | 0.088 | 0.084 | 0.079 | 0.075 | 0.069 | 0.067 | 0.066
573.2 K, 40000 kPa | 0.093 | 0.091 | 0.089 | 0.085 | 0.08 | 0.078 | 0.077
618.2 K, 20000 kPa | 0.054 | 0.035 | 0.031 | 0.032 | 0.035 | 0.038 | 0.039
618.2 K, 30000 kPa | 0.072 | 0.065 | 0.059 | 0.057 | 0.055 | 0.055 | 0.055
618.2 K, 40000 kPa | 0.081 | 0.076 | 0.073 | 0.07 | 0.067 | 0.067 | 0.067

mass density [kg/m3]
Settings | x1 = 0.1 | x1 = 0.2 | x1 = 0.3 | x1 = 0.4 | x1 = 0.6 | x1 = 0.8 | x1 = 1
523.2 K, 20000 kPa | 745.9 | 694.1 | 653.2 | 622.3 | 578.5 | 550.5 | 533.1
523.2 K, 30000 kPa | 761.6 | 713.6 | 676.9 | 650.7 | 612.4 | 588.9 | 573.6
523.2 K, 40000 kPa | 773.2 | 728.3 | 694.7 | 671.6 | 636.3 | 615.2 | 601.3
573.2 K, 20000 kPa | 649.3 | 585.4 | 534.9 | 494.9 | 446.2 | 426.2 | 421.1
573.2 K, 30000 kPa | 674.8 | 621.4 | 582.5 | 553.5 | 517.6 | 499 | 491.5
573.2 K, 40000 kPa | 694.9 | 647.6 | 614 | 587.9 | 557.4 | 540.4 | 531
618.2 K, 20000 kPa | 445.3 | 281.3 | 250.4 | 253.1 | 270.6 | 295 | 314.6
618.2 K, 30000 kPa | 566.3 | 501.5 | 460.9 | 437.4 | 420.1 | 418.9 | 423.8
618.2 K, 40000 kPa | 610.3 | 561 | 529.3 | 509.1 | 488.2 | 481.7 | 481.2

CO [methanol] + O
viscosity [mPa·s], Pressure drop in straight capillary
Settings | x1 = 0.1 | x1 = 0.2 | x1 = 0.3 | x1 = 0.4 | x1 = 0.6 | x1 = 0.8 | x1 = 1
523.2 K, 20000 kPa | 0.116 | 0.112 | 0.108 | 0.102 | 0.09 | 0.079 | 0.07
523.2 K, 30000 kPa | 0.118 | 0.117 | 0.114 | 0.11 | 0.1 | 0.09 | 0.08
523.2 K, 40000 kPa | 0.121 | 0.121 | 0.119 | 0.115 | 0.107 | 0.098 | 0.089
573.2 K, 20000 kPa | 0.084 | 0.08 | 0.074 | 0.067 | 0.054 | 0.045 | 0.042
573.2 K, 30000 kPa | 0.089 | 0.085 | 0.078 | 0.078 | 0.072 | 0.065 | 0.063
573.2 K, 40000 kPa | 0.094 | 0.091 | 0.087 | 0.084 | 0.075 | 0.069 | 0.065
618.2 K, 20000 kPa | 0.06 | 0.035 | 0.026 | 0.025 | 0.027 | 0.027 | 0.029
618.2 K, 30000 kPa | 0.071 | 0.065 | 0.058 | 0.052 | 0.047 | 0.044 | 0.043
618.2 K, 40000 kPa | 0.078 | 0.073 | 0.069 | 0.065 | 0.059 | 0.055 | 0.053

mass density [kg/m3]
Settings | x1 = 0.1 | x1 = 0.2 | x1 = 0.3 | x1 = 0.4 | x1 = 0.6 | x1 = 0.8 | x1 = 1
523.2 K, 20000 kPa | 767.8 | 724.7 | 686.4 | 652.8 | 597.1 | 552.1 | 517.5
523.2 K, 30000 kPa | 781.4 | 740.7 | 705.9 | 677 | 628.4 | 591.4 | 563.57
523.2 K, 40000 kPa | 791.9 | 754.4 | 722.3 | 694.7 | 650.9 | 618.2 | 593.3
573.2 K, 20000 kPa | 674.5 | 619.8 | 569.3 | 522.3 | 439.6 | 380.5 | 345.3
573.2 K, 30000 kPa | 696.2 | 650.4 | 610.2 | 575.5 | 520.4 | 482.3 | 457.63
573.2 K, 40000 kPa | 714.3 | 673.1 | 638 | 608 | 562.4 | 530.6 | 511
618.2 K, 20000 kPa | 497.6 | 299.3 | 208.9 | 198.2 | 198.4 | 203.9 | 210.5
618.2 K, 30000 kPa | 586 | 524.1 | 473.1 | 430.4 | 381.7 | 360.2 | 350.4
618.2 K, 40000 kPa | 624.9 | 578.5 | 544.1 | 512 | 470.3 | 446.2 | 427.7

CCCO [propan-1-ol] + O
viscosity [mPa·s], Capillary tube (Ostwald / Ubbelohde) method
Settings | x1 = 0.1 | x1 = 0.2 | x1 = 0.3 | x1 = 0.4 | x1 = 0.6 | x1 = 0.8 | x1 = 1
523.2 K, 20000 kPa | 0.131 | 0.129 | 0.122 | 0.121 | 0.117 | 0.114 | 0.115
523.2 K, 30000 kPa | 0.138 | 0.139 | 0.134 | 0.134 | 0.132 | 0.13 | 0.134
523.2 K, 40000 kPa | 0.138 | 0.146 | 0.145 | 0.146 | 0.146 | 0.146 | 0.15
573.2 K, 20000 kPa | 0.088 | 0.082 | 0.076 | 0.073 | 0.07 | 0.071 | 0.073
573.2 K, 30000 kPa | 0.092 | 0.09 | 0.085 | 0.084 | 0.082 | 0.083 | 0.085
573.2 K, 40000 kPa | 0.098 | 0.098 | 0.096 | 0.094 | 0.095 | 0.097 | 0.098
618.2 K, 20000 kPa | 0.056 | 0.042 | 0.04 | 0.042 | 0.047 | 0.052 | 0.057
618.2 K, 30000 kPa | 0.077 | 0.07 | 0.066 | 0.065 | 0.066 | 0.07 | 0.073
618.2 K, 40000 kPa | 0.086 | 0.082 | 0.079 | 0.079 | 0.08 | 0.084 | 0.087

mass density [kg/m3]
Settings | x1 = 0.1 | x1 = 0.2 | x1 = 0.3 | x1 = 0.4 | x1 = 0.6 | x1 = 0.8 | x1 = 1
523.2 K, 20000 kPa | 733.5 | 682.3 | 648 | 624.3 | 596 | 582.1 | 575.3
523.2 K, 30000 kPa | 749.8 | 702.6 | 672.3 | 651 | 626.2 | 613.3 | 606.8
523.2 K, 40000 kPa | 761.7 | 718.6 | 689.7 | 670.3 | 647.5 | 635.6 | 629.3
573.2 K, 20000 kPa | 637.8 | 576.7 | 538 | 513.7 | 492.5 | 489.6 | 494.3
573.2 K, 30000 kPa | 664.2 | 614.7 | 583 | 564.2 | 545.3 | 540.2 | 540.6
573.2 K, 40000 kPa | 685.8 | 640.9 | 613.2 | 596.3 | 578.8 | 572.6 | 572.1
618.2 K, 20000 kPa | 430.7 | 324.4 | 311.8 | 325.6 | 360.4 | 393.7 | 419.4
618.2 K, 30000 kPa | 557.7 | 504.6 | 479.5 | 469.8 | 469.3 | 480.8 | 491.7
618.2 K, 40000 kPa | 603.6 | 561.4 | 539.6 | 529 | 523.2 | 528 | 534.1

O [water] + CCCO
viscosity [mPa·s], Capillary tube (Ostwald / Ubbelohde) method, x2 = 0
Settings | 523.2 K | 573.2 K | 618.2 K
20000 kPa | 0.11 | 0.09 | 0.072
30000 kPa | 0.113 | 0.093 | 0.077
40000 kPa | 0.115 | 0.096 | 0.081

mass density [kg/m3], x2 = 0
Settings | 523.2 K | 573.2 K | 618.2 K
20000 kPa | 816.1 | 734.8 | 619.7
30000 kPa | 825.5 | 750.7 | 656.9
40000 kPa | 834.3 | 764.4 | 682.3

O [water] + CCO
viscosity [mPa·s], Capillary tube (Ostwald / Ubbelohde) method, x2 = 0
Settings | 523.2 K | 573.2 K | 618.2 K
20000 kPa | 0.11 | 0.09 | 0.072
30000 kPa | 0.113 | 0.093 | 0.077
40000 kPa | 0.115 | 0.096 | 0.081

mass density [kg/m3], x2 = 0
Settings | 523.2 K | 573.2 K | 618.2 K
20000 kPa | 816.1 | 734.8 | 619.7
30000 kPa | 825.5 | 750.7 | 656.9
40000 kPa | 834.3 | 764.3 | 682.3

O [water] + CO
viscosity [mPa·s], Pressure drop in straight capillary, x2 = 0
Settings | 523.2 K | 573.2 K | 618.2 K
20000 kPa | 0.11 | 0.09 | 0.072
30000 kPa | 0.113 | 0.093 | 0.077
40000 kPa | 0.115 | 0.096 | 0.081

mass density [kg/m3], x2 = 0
Settings | 523.2 K | 573.2 K | 618.2 K
20000 kPa | 816.1 | 734.8 | 619.7
30000 kPa | 825.5 | 750.7 | 656.9
40000 kPa | 834.3 | 764.4 | 682.3
